According to patent US20140154342A1, “SANDALWOOD OIL AND ITS USES RELATED TO SKIN DISORDERS” (SANTALIS PHARMACEUTICALS INC., priority 2011, published 2014):
≈ marks a conversion by molar mass, not a printed value.

Tests used:
[1] = tested on: MCP-1; test: MCP-1 expression in conditioned media of LPS stimulated dermal fibroblasts by ELISA; assay type: cell-based; settings: at 40-160 μg/ml
[2] = tested on: IL-6; test: IL-6 expression in conditioned media of LPS stimulated dermal fibroblasts by ELISA; assay type: cell-based; settings: Fibroblast, 24 h, read-out: IC50, suppression of IL-6 expression
Method: Dermal fibroblasts were treated with LPS+S1 or S2 at 5-40 μg/ml for 24 h. […] Ibuprofen suppressed IL-6 expression with IC50 of ˜40 μg/ml.

[3] = tested on: dermal fibroblasts; settings: 24 h

CC(C)Cc1ccc(C(C)C(=O)O)cc1 (stereo not drawn) [Ibuprofen]
suppression of MCP-1 expression [1]: ~10 fold | IC50 [2]: ~40 µg/mL (≈ 194 µM) | concentration with cytotoxic effect (no adverse effects / no cytotoxicity up to the value) [3]: > 160 µg/mL
